In the NIST ThermoML archive (doi:10.1021/je100912t):
± gives the expanded uncertainty stated by the source.

Legend:
[1] = refractive index (Na D-line) (dimensionless); details: 298.15 K; 101.33 kPa; Liquid; Standard Abbe refractometry
[2] = Liquid; for mass density: 298.15 K, 101.33 kPa, Pycnometric method; for vapor or sublimation pressure: Ebulliometric method (Recirculating still)

refractive index [1]	mass density [2] [kg/m3]	vapor or sublimation pressure ([2]; 370.27 K) [kPa]	vapor or sublimation pressure ([2]; 321.18 K) [kPa]	vapor or sublimation pressure ([2]; 412.91 K) [kPa]	Compound
1.3856 ± 0.0004	803.62 ± 0.71	101.33 ± 1			CCCO [propan-1-ol]
1.3634 ± 0.0004	797.21 ± 0.7		101.33 ± 1		CCC=O [propanal]
1.3858 ± 0.0004	992.86 ± 0.88			101.33 ± 1	CCC(=O)O [propanoic acid]
